Reference: patent publication US8410141B2, “Insecticidal arylpyrrolines” (Bayer Cropscience AG, priority 2009, dated 2013)

What was measured:
Type in all cases: in vivo
[1] = test system: two spotted spidermite (Tetranychus urticae), OP-resistant; assay: Tetranychus urticae test, OP-resistant (TETRUR spray application); conditions: 100 g/ha; French beans sprayed; all stages; after 6 days
Description: (§1) Solvent: 78.0 parts by weight acetone
(§2) • 1.5 parts by weight dimethylformamide Emulsifier: 0.5 parts by weight alkylarylpolyglycolether
To produce a suitable preparation of active compound, 1 part by weight of active compound is mixed with the stated amount of solvent and emulsifier, and the concentrate is diluted with emulsifier-containing water to the desired concentration. French beans (Phaseolus vulgaris) which are heavily infested with all stages of the two spotted spidermite (Tetranychus urticae), are sprayed with a preparation of the active ingredient at the desired concentration.
After 6 days mortality in % is determined. 100% means that all spider mites have been killed and 0% means that none of the spider mites have been killed.

[2] = test system: mustard beetle larvae (Phaedon cochleariae); assay: Phaedon cochleariae test, PHAECO spray application; conditions: 100 g/ha; Chinese cabbage leaf-disks sprayed; after 7 days
Description: Solvent: 78.0 parts by weight of acetone
• 1.5 parts by weight of dimethylformamide Emulsifier: 0.5 parts by weight of alkylaryl polyglycolether
To produce a suitable preparation of active compound, 1 part by weight of active compound is mixed with the stated amount of solvent and emulsifier, and the concentrate is diluted with emulsifier-containing water to the desired concentration.
Chinese cabbage (Brassica pekinesis) leaf-disks are sprayed with a preparation of the active ingredient of the desired concentration. Once dry, the leaf disks are infested with mustard beetle larvae (Phaedon cochleariae).
After 7 days mortality in % is determined. 100% means that all beetle larvae have been killed and 0% means that none of the beetle larvae have been killed.

[3] = test system: fall armyworm larvae (Spodoptera frugiperda); assay: Spodoptera frugiperda test, SPODFR spray application; conditions: 100 g/ha; maize leaf sections sprayed; after 7 days
Description: as §1, §2
To produce a suitable preparation of the active compound, 1 part by weight of active compound is mixed with the stated amount of solvent and emulsifier, and the concentrate is dilutes with emulsifier-containing water to the desired concentration. Maize (Zea mais) leaf sections are sprayed with a preparation of the active ingredient of the desired concentration. Once dry, the leaf sections are infested with fall armyworm larvae (Spodoptera frugiperda).
After 7 days mortality in % is determined. 100% means that all caterpillars have been killed and 0% means that none of the caterpillars have been killed.

[4] = test system: green peach aphid (Myzus persicae); assay: Myzus test, oral (MYZUPE O); conditions: 100 g/ha; aphids suck on preparation; after 5 days
Description: Solvent: 80 parts by weight acetone
To produce a suitable preparation of active compound, 1 part by weight of active compound ist mixed with the stated amount of solvent and emulsifier, and the concentrate is diluted with emulsifier-containing water to the desired concentration. Containers are infested with a mixed population of the green peach aphid (Myzus persicae), the aphids suck on a preparation of the active compound at the desired concentration.
After 5 days mortality in % is determined. 100% means that all aphids have been killed; 0% means that none of the aphids have been killed.

SMILES: CN(C)c1c(Cl)cc(C2(C(F)(F)F)CN=C(c3ccc(-n4cncn4)c(C#N)c3)C2)cc1Cl (stereo not shown) [1-3]
- mortality [1]: 100%
- mortality [2]: 100%
- mortality [3]: 83%
- mortality [4]: 100%
